Measured values: ChEMBL document CHEMBL3808327, “Natural Products as Sources of New Drugs from 1981 to 2014” (J Nat Prod, 2016)

Target: Serine/threonine-protein kinase B-raf (Homo sapiens, UniProt P15056, V600E)
Experiment: Inhibition of N-terminal his-tagged BRAF V600E mutant (448 to 723 residues) (unknown origin) expressed in Escherichia coli BL21(DE3) cells assessed as phosphorylation of biotinylated-MEK by AlphaScreen assay

Sequence of Serine/threonine-protein kinase B-raf (P15056 2-766 V600E limits assumed): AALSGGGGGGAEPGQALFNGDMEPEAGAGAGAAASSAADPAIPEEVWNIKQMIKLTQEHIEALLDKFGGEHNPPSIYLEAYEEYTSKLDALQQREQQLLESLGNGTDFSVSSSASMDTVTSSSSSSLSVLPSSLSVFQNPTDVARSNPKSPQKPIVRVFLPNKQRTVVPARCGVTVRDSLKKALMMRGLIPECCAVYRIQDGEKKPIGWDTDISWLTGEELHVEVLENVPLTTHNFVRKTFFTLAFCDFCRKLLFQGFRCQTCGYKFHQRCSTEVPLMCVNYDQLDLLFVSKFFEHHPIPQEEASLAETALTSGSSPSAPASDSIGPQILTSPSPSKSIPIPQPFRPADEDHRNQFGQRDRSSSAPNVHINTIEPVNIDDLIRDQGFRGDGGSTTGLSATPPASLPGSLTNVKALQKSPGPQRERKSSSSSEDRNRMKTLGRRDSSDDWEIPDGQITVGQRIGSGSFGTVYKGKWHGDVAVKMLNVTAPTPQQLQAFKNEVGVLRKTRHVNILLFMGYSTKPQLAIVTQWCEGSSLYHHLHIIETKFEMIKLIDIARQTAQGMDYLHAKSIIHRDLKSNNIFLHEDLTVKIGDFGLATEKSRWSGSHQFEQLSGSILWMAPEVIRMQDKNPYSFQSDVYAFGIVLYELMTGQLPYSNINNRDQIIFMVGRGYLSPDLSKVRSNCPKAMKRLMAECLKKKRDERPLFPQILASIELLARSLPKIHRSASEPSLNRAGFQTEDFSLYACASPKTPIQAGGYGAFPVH

IC50: > 100 µM
Compound: c1ccc(Nc2c[nH]c3ncccc23)cc1
